{"source": "patent EP0017970A1", "about": "“Novel beta-lactam derivatives and process for production thereof” (SANRAKU-OCEAN CO., LTD., priority 1979, dated 1980)", "key": {"[1]": {"assay": "Test for concentration in blood (plasma of mouse, bioassay)", "format": "in vivo", "conditions": "sc, subcutaneous, 2 mg/mouse, average on five mice; for Cmax: bioassay with Comamonas terrigena B-996, read-out: Maximum concentration; for half-life: read-out: Half period (period that elapsed until the concentration was reduced to half)", "procedure": "Typical species of the compounds of formula (VI-b) were each administered subcutaneously to five mice in a dose of 2 mg. After 5 minutes from the administration, a small amount of blood was periodically drawn from the eyes of the mice into a heparinized capillary tube, and centrifuged. The concentration of the compound in the supernatant liquid (plasma) was determined by a bioassay method using Comamonas terri^gena B-996."}, "[2]": {"system": "Staphylococcus aureus Smith strain", "assay": "Infection treating test (CD50)", "format": "in vivo", "conditions": "in Mus musculus, sc, 2 h, mice infected intraperitoneally with 5 x 10^5 cells per mouse, subcutaneous injection two hours after the infection", "procedure": "The in vivo activities of the compounds of formula (VI-b) were determined by using mice (five per group, male DDY mice, Shizuoka) which had been intraperitoneally infected with Staphylococcus aureus Smith strain in an amount of 5 x 10^5 cells per mouse. Two hours after the infection, an injection containing a sodium salt of each of the compounds of formula (VI-b) was subcutaneously administered to the mice."}, "[3]": {"system": "S. aureus", "assay": "Disc diffusion assay in nutrient broth containing 10% horse serum", "format": "cell-based", "text": "The compounds of formula (I) provided by this invention show excellent antimicrobial activities in in vitro tests in horse serum as shown in Table IV below."}}}
{"molecule": "CCC1C(=O)N2C(C(=O)O)=C(Sc3ccncc3)CC12", "note": "(stereo not drawn) [Table II r5 R1=H R2=[drawing] M=H]", "values": [{"measurement": "Cmax", "setting": "[1]", "value": 70700, "unit": "ng/mL"}, {"measurement": "half-life", "setting": "[1]", "value": 16, "unit": "min"}, {"measurement": "ED50", "setting": "[2]", "value": 0.063, "unit": "mg/kg"}]}
{"molecule": "CC(C)C1C(=O)N2C(C(=O)O)=C(Sc3ccncc3)CC12", "note": "(stereo not drawn) [Table II r6 R1=-CH3 R2=[drawing] M=H]", "values": [{"measurement": "Cmax", "setting": "[1]", "value": 30700, "unit": "ng/mL"}, {"measurement": "half-life", "setting": "[1]", "value": 15.2, "unit": "min"}, {"measurement": "ED50", "setting": "[2]", "value": 0.5, "unit": "mg/kg"}]}
{"molecule": "CCC1C(=O)N2C(C(=O)O)=C(Sc3ccccn3)CC12", "note": "(stereo not drawn) [Table II r9 R1=H R2=[drawing] M=H]", "values": [{"measurement": "Cmax", "setting": "[1]", "value": 48400, "unit": "ng/mL"}, {"measurement": "half-life", "setting": "[1]", "value": 29, "unit": "min"}, {"measurement": "ED50", "setting": "[2]", "value": 0.125, "unit": "mg/kg"}]}
{"molecule": "CCC1C(=O)N2C(C(=O)O)=C(Sc3ncccn3)CC12", "note": "(stereo not drawn) [Table II r10 R1=H R2=[drawing] M=H]", "values": [{"measurement": "Cmax", "setting": "[1]", "value": 23600, "unit": "ng/mL"}, {"measurement": "half-life", "setting": "[1]", "value": 22, "unit": "min"}, {"measurement": "ED50", "setting": "[2]", "value": 0.25, "unit": "mg/kg"}]}
{"molecule": "CC(C)C1C(=O)N2C(C(=O)O)=C(Sc3ncccn3)CC12", "note": "(stereo not drawn) [Table II r11 R1=-CH3 R2=[drawing] M=H]", "values": [{"measurement": "Cmax", "setting": "[1]", "value": 21200, "unit": "ng/mL"}, {"measurement": "half-life", "setting": "[1]", "value": 18.2, "unit": "min"}, {"measurement": "ED50", "setting": "[2]", "value": 1, "unit": "mg/kg"}]}
{"molecule": "CCC1C(=O)N2C(C(=O)O)=C(SC3CCCCC3)CC12", "note": "(stereo not drawn) [Table II r14 R1=H R2=[drawing] M=Na]", "values": [{"measurement": "Cmax", "setting": "[1]", "value": 8240, "unit": "ng/mL"}, {"measurement": "half-life", "setting": "[1]", "value": 7.2, "unit": "min"}]}
{"molecule": "CCC1C(=O)N2C(C(=O)O)=C(Sc3ccccc3)CC12", "note": "(stereo not drawn) [Table II r15 R1=H R2=[drawing] M=Na]", "values": [{"measurement": "Cmax", "setting": "[1]", "value": 11300, "unit": "ng/mL"}, {"measurement": "half-life", "setting": "[1]", "value": 25.2, "unit": "min"}]}
{"molecule": "CCC1C(=O)N2C(C(=O)OC)=C(Br)CC12", "note": "(stereo not drawn) [Table IV r4 R=H X=Br M=CH3, methyl 3-bromo-6-ethyl-7-oxo-l-azabicyclo[3.2.0]hept-2-ene-2-carboxylate]", "values": [{"measurement": "Inhibitory zone diameter", "setting": "[3]", "value": 29.7, "unit": "mm"}]}
{"molecule": "CCC1C(=O)N2C(C(=O)OCc3ccccc3)=C(Br)CC12", "note": "(stereo not drawn) [Table IV r5 R=H X=Br M=[drawing]]", "values": [{"measurement": "Inhibitory zone diameter", "setting": "[3]", "value": 30.2, "unit": "mm"}]}
{"molecule": "CCC1C(=O)N2C(C(=O)OCc3ccc([N+](=O)[O-])cc3)=C(Br)CC12", "note": "(stereo not drawn) [Table IV r6 R=H X=Br M=[drawing]]", "values": [{"measurement": "Inhibitory zone diameter", "setting": "[3]", "value": 28.6, "unit": "mm"}]}
{"molecule": "CC(C)C1C(=O)N2C(C(=O)OCc3ccc([N+](=O)[O-])cc3)=C(Br)CC12", "note": "(stereo not drawn) [Table IV r7 R=CH3 X=Br M=[drawing]]", "values": [{"measurement": "Inhibitory zone diameter", "setting": "[3]", "value": 26.8, "unit": "mm"}]}
{"molecule": "CC(O)C1C(=O)N2C(C(=O)OCc3ccc([N+](=O)[O-])cc3)=C(Br)CC12", "note": "(stereo not drawn) [Table IV r8 R=OH X=Br M=[drawing]]", "values": [{"measurement": "Inhibitory zone diameter", "setting": "[3]", "value": 31.2, "unit": "mm"}]}
{"molecule": "CCC1C(=O)N2C(C(=O)OC)=C(I)CC12", "note": "(stereo not drawn) [Table IV r9 R=H X=I M=CH3, methyl 3-iodo-6-ethyl-7-oxo-l-azabicyclo[3.2.0]hept-2-ene-2-carboxylate]", "values": [{"measurement": "Inhibitory zone diameter", "setting": "[3]", "value": 29.6, "unit": "mm"}]}
{"molecule": "CCC1C(=O)N2C(C(=O)OCc3ccccc3)=C(I)CC12", "note": "(stereo not drawn) [Table IV r10 R=H X=I M=[drawing]]", "values": [{"measurement": "Inhibitory zone diameter", "setting": "[3]", "value": 30.0, "unit": "mm"}]}
{"molecule": "COC(=O)C1=C(I)CC2C(C(C)O)C(=O)N12", "note": "(stereo not drawn) [Table IV r11 R=OH X=I M=CH3]", "values": [{"measurement": "Inhibitory zone diameter", "setting": "[3]", "value": 31.0, "unit": "mm"}]}
